Data from patent US10072122B2, “Carbonate polymer containing a functional group of disulfide five-membered ring in the side chain and application thereof” (BrightGene Bio-Medical Technology Co., Ltd, priority 2014, dated 2018).
Counter-ions that a name gives are not always drawn.

How the values were obtained:
[1] = tested on: B16 melanoma tumor; assay: therapeutic efficacy in mice bearing melanoma tumors; assay type: in vivo, C57BL/6 mice; settings: DOX 10 mg/kg
[2] = tested on: B16 melanoma tumor; assay: biodistribution in mice bearing melanoma tumors; assay type: in vivo, C57BL/6 mice; settings: i.v. 10 mg/kg DOX
Method: (§1) Mice were intravenously injected with nanoparticle loaded drug and DOX (DOX was 10 mg/kg) when the tumor volume reached 100-200 mm^3 about two weeks. The mice were sacrificed at 6, 12 or 24 h and the tumor and organs of heart, liver, spleen, lung and kidney were collected, wet weighed, then 500 μL 1% triton was added, homogenized and extracted by 900 μL DMF solution (containing 1 mM HCl and 20 mM DTT). Taken the supernatant by centrifugation (20000 rpm, 20 min). The DOX level at each time was determined by fluorescence measurement.

[3] = blood circulation of cross-linked nanoparticle loaded drug in mice; assay type: in vivo, C57BL/6 mice; settings: i.v. 10 mg/kg DOX
Method: (§2) Mice were intravenously injected with nanoparticle loaded drug and free drug, and DOX was 10 mg/kg. 10 μL of blood was taken at different time points of 0, 0.25, 0.5, 1, 2, 4, 8, 12 and 24 h, and the weight of blood was calculated with the method of balance. The blood samples upon withdrawing were immediately dissolved in 100 μL 1% triton and 500 μL of extraction solution DMF (containing 1M HCl and 20 mM DTT). Taken the supernatant by centrifugation (20000 rpm, 20 min). The DOX level in the supernatant of each time was determined by fluorometry.

[4] = tested on: U87MG human glioma cells; assay: therapeutic efficacy in mice bearing human glioma cells
Method: Aged 4 to 6 weeks old, weight 18 to 20 g Balb/C mice (Shanghai Institutes for Biological Sciences Laboratory Animal Center) were collected. They were evenly divided into groups after weighting. U87MG human glioma cells of 5×10^6 cells were generated by subcutaneous injection into the hind flank of the mice. Mice were intravenously injected with cRGD20/CLPs, CLPs, targeting decross-linked nanoparticle vesicle (cRGD20/PEG-PTMC), DOX.HCl and PBSat 0, 4, 8.12 day when the tumor volume reached 30 to 50 mm^3 about two weeks, where the DOX proportion was 10 mg/kg. The tumor size was measured every two days using calipers from 0 to 18 day. The tumor size was calculated by V=(L*W*H)/2 (L was length of tumor, W was width of tumor, H was thickness of tumor). Continue to observe the survival of mice until 45 day.

[5] = biodistribution in mice bearing human glioma cells; assay type: in vivo; settings: Balb/C, mouse, tumor, iv, i.v. 10 mg/kg DOX, read-out: accumulation of DOX in tumor
Method: as §1, with “The” for “Mice were intravenously injected with nanoparticle loaded drug and DOX (DOX was 10 mg/kg) when the tumor volume reached 100-200 mm^3 about two weeks. The”, “4” for “6, 12 or 24”

[6] = blood circulation of targeting cross-linked vesicle loaded drug in mice; assay type: in vivo, Balb/C mice; settings: i.v. 10 mg/kg DOX
Method: as §2, with “The vesicle was formed with different ratio of cRGD-PEG6k-P(CDC4.6k-co-TMC18.6k) and PEG5k-P(CDC4.9k-co-TMC19k). […] Mice” for “Mice”, “targeting vesicle” for “nanoparticle”, “drug cRGD20/CLPs, vesicle loaded drug CLPs, targeting decross-linked vesicle cRGD20/PEG-PTMC” for “drug”, “DOX.HCl as control (the” for “free drug, and”, “mg/kg).” for “mg/kg.”

[7] = tested on: B16 melanoma tumor; assay: therapeutic efficacy of iRGD targeting cross-linked vesicles in mice bearing melanoma tumors; assay type: in vivo, C57BL/6 mice
Method: The tumor size was measured every day using calipers from 0 to 20 day.

| SMILES | tumor growth [1] | survival rate ([1]; 10 days) | body weight reduced ([1]; at 7 day) | accumulation in tumor ([2]; 6 h) | accumulation in tumor ([2]; 12 h) | accumulation in tumor ([2]; 24 h) | half-lives of eliminate in mice ([3]; C57BL/6 mice) | DOX in blood ([3]; at 2 h) | tumor growth ([4]; 10 mg/kg DOX at 0, 4, 8, 12 day, 18 day) | declining of body weight ([4]; 10 mg/kg, at 12 day) | survival rate ([4]; 13 days) | tissue uptake at 4 h [5] | DOX in blood ([6]; at 2 h) | half-life ([6]; mouse, whole blood, iv, Balb/C mice, read-out: half-lives of eliminate in mice (converted)) | tumor growth ([7]; 10 mg/kg DOX.HCl at 0, 3, 6, 9, 12 day, 20 day) | declining of body weight ([7]; 10 mg/kg, at 8 day) | survival rate ([7]; 10 days) |
| --- | --- | --- | --- | --- | --- | --- | --- | --- | --- | --- | --- | --- | --- | --- | --- | --- | --- |
| COc1cccc2c1C(=O)c1c(O)c3c(c(O)c1C2=O)C[C@@](O)(C(=O)CO)C[C@@H]3O[C@H]1C[C@H](N)[C@H](O)[C@H](C)O1 [DOX, Doxorubicin] | can inhibited tumor growth | 0 | 23% | 1.05 ID %/g | 0.52 ID %/g | 0.29 ID %/g | 0.21 h | can not detection | – | – | – | – | – | – | – | – | – |
| COc1cccc2c1C(=O)c1c(O)c3c(c(O)c1C2=O)C[C@@](O)(C(=O)CO)C[C@@H]3O[C@H]1C[C@H](N)[C@H](O)[C@H](C)O1 [DOX.HCl, doxorubicin hydrochloride] | – | – | – | – | – | – | – | – | can inhibited tumor growth | 21% | 0 | 0.82 %ID/g | can not detection | 16.2 min | can inhibit tumor growth | 20% | 0 |
